Paper PMC5433425 (PeerJ, 2017)
Peptide text beside a SMILES is read from it. * marks the point of attachment. βNA = c1ccc2cc(N*)ccc2c1

Legend:
E. coli AG100tet = test: EtBr efflux by real-time fluorometry; conditions: 80 µM
E. coli AG100 [1] = test: EtBr accumulation by real-time fluorometry; conditions: EtBr 1 µg/ml + inhibitor 80 µM
E. coli AG100 [2] = test: Membrane potential assay (BacLight, DiOC2(3)); conditions: 80 µM

## NC(N)=NCCC[C@H](NC(=O)[C@@H](N)Cc1ccccc1)C(=O)Nc1ccc2ccccc2c1 [PAβN] (H-Phe-Arg-βNA)
E. coli AG100tet; cycle 31, without glucose
  Fluorescence raw data, Channel Cycling A.530/585hp: 2.164
E. coli AG100tet; cycle 32, + glucose
  Fluorescence raw data, Channel Cycling A.530/585hp: 1.6187
E. coli AG100tet; cycle 32, without glucose
  Fluorescence raw data, Channel Cycling A.530/585hp: 2.166
E. coli AG100tet; cycle 33, + glucose
  Fluorescence raw data, Channel Cycling A.530/585hp: 1.65
E. coli AG100tet; cycle 33, without glucose
  Fluorescence raw data, Channel Cycling A.530/585hp: 2.197
E. coli AG100tet; cycle 34, + glucose
  Fluorescence raw data, Channel Cycling A.530/585hp: 1.608
E. coli AG100tet; cycle 34, without glucose
  Fluorescence raw data, Channel Cycling A.530/585hp: 2.188
E. coli AG100tet; cycle 35, + glucose
  Fluorescence raw data, Channel Cycling A.530/585hp: 1.636
E. coli AG100tet; cycle 35, without glucose
  Fluorescence raw data, Channel Cycling A.530/585hp: 2.154
E. coli AG100tet; cycle 36, + glucose
  Fluorescence raw data, Channel Cycling A.530/585hp: 1.655
E. coli AG100tet; cycle 36, without glucose
  Fluorescence raw data, Channel Cycling A.530/585hp: 2.1525
E. coli AG100tet; cycle 37, + glucose
  Fluorescence raw data, Channel Cycling A.530/585hp: 1.639
E. coli AG100tet; cycle 37, without glucose
  Fluorescence raw data, Channel Cycling A.530/585hp: 2.17
E. coli AG100tet; cycle 38, + glucose
  Fluorescence raw data, Channel Cycling A.530/585hp: 1.617
E. coli AG100tet; cycle 38, without glucose
  Fluorescence raw data, Channel Cycling A.530/585hp: 2.15
E. coli AG100tet; cycle 39, + glucose
  Fluorescence raw data, Channel Cycling A.530/585hp: 1.593
E. coli AG100tet; cycle 39, without glucose
  Fluorescence raw data, Channel Cycling A.530/585hp: 2.185
E. coli AG100tet; cycle 40, + glucose
  Fluorescence raw data, Channel Cycling A.530/585hp: 1.564
E. coli AG100tet; cycle 40, without glucose
  Fluorescence raw data, Channel Cycling A.530/585hp: 2.132
E. coli AG100tet; cycle 41, + glucose
  Fluorescence raw data, Channel Cycling A.530/585hp: 1.567
E. coli AG100tet; cycle 41, without glucose
  Fluorescence raw data, Channel Cycling A.530/585hp: 2.08
E. coli AG100tet; cycle 42, + glucose
  Fluorescence raw data, Channel Cycling A.530/585hp: 1.587
E. coli AG100tet; cycle 42, without glucose
  Fluorescence raw data, Channel Cycling A.530/585hp: 2.131
E. coli AG100tet; cycle 43, + glucose
  Fluorescence raw data, Channel Cycling A.530/585hp: 1.59
E. coli AG100tet; cycle 43, without glucose
  Fluorescence raw data, Channel Cycling A.530/585hp: 2.079
E. coli AG100tet; cycle 44, + glucose
  Fluorescence raw data, Channel Cycling A.530/585hp: 1.59
E. coli AG100tet; cycle 44, without glucose
  Fluorescence raw data, Channel Cycling A.530/585hp: 2.093
E. coli AG100tet; cycle 45, without glucose
  Fluorescence raw data, Channel Cycling A.530/585hp: 2.121
E. coli AG100tet; cycle 46, without glucose
  Fluorescence raw data, Channel Cycling A.530/585hp: 2.065
E. coli AG100tet; cycle 47, without glucose
  Fluorescence raw data, Channel Cycling A.530/585hp: 2.081
E. coli AG100tet; cycle 48, without glucose
  Fluorescence raw data, Channel Cycling A.530/585hp: 2.1149
E. coli AG100tet; cycle 49, without glucose
  Fluorescence raw data, Channel Cycling A.530/585hp: 2.071
E. coli AG100tet; cycle 50, without glucose
  Fluorescence raw data, Channel Cycling A.530/585hp: 2.047
E. coli AG100tet; cycle 51, without glucose
  Fluorescence raw data, Channel Cycling A.530/585hp: 2.071
E. coli AG100tet; cycle 52, without glucose
  Fluorescence raw data, Channel Cycling A.530/585hp: 2.107
E. coli AG100tet; cycle 53, without glucose
  Fluorescence raw data, Channel Cycling A.530/585hp: 2.082
E. coli AG100tet; cycle 54, without glucose
  Fluorescence raw data, Channel Cycling A.530/585hp: 2.046
E. coli AG100tet; cycle 55, without glucose
  Fluorescence raw data, Channel Cycling A.530/585hp: 2.03
E. coli AG100tet; cycle 56, without glucose
  Fluorescence raw data, Channel Cycling A.530/585hp: 2.023
E. coli AG100tet; cycle 57, without glucose
  Fluorescence raw data, Channel Cycling A.530/585hp: 2.015
E. coli AG100tet; cycle 58, without glucose
  Fluorescence raw data, Channel Cycling A.530/585hp: 2.049
E. coli AG100tet; cycle 59, without glucose
  Fluorescence raw data, Channel Cycling A.530/585hp: 2.011
E. coli AG100tet; cycle 60, without glucose
  Fluorescence raw data, Channel Cycling A.530/585hp: 2.05
E. coli AG100tet; cycle 61, without glucose
  Fluorescence raw data, Channel Cycling A.530/585hp: 1.991
E. coli AG100 [1]; cycle 1
  EtBr fluorescence: 5.077
E. coli AG100 [1]; cycle 2
  EtBr fluorescence: 5.498
E. coli AG100 [1]; cycle 3
  EtBr fluorescence: 5.692
E. coli AG100 [1]; cycle 4
  EtBr fluorescence: 6.095
E. coli AG100 [1]; cycle 5
  EtBr fluorescence: 6.2405
E. coli AG100 [1]; cycle 6
  EtBr fluorescence: 6.476
E. coli AG100 [1]; cycle 7
  EtBr fluorescence: 6.738
E. coli AG100 [1]; cycle 8
  EtBr fluorescence: 6.948
E. coli AG100 [1]; cycle 9
  EtBr fluorescence: 7.121
E. coli AG100 [1]; cycle 10
  EtBr fluorescence: 7.401
E. coli AG100 [1]; cycle 11
  EtBr fluorescence: 7.525
E. coli AG100 [1]; cycle 12
  EtBr fluorescence: 7.725
E. coli AG100 [1]; cycle 13
  EtBr fluorescence: 8.024
E. coli AG100 [1]; cycle 14
  EtBr fluorescence: 8.041
E. coli AG100 [1]; cycle 15
  EtBr fluorescence: 8.277
E. coli AG100 [1]; cycle 16
  EtBr fluorescence: 8.537
E. coli AG100 [1]; cycle 17
  EtBr fluorescence: 8.7426
E. coli AG100 [1]; cycle 18
  EtBr fluorescence: 8.8367
E. coli AG100 [1]; cycle 19
  EtBr fluorescence: 8.945
E. coli AG100 [1]; cycle 20
  EtBr fluorescence: 9.137
E. coli AG100 [1]; cycle 21
  EtBr fluorescence: 9.31
E. coli AG100 [1]; cycle 22
  EtBr fluorescence: 9.534
E. coli AG100 [1]; cycle 23
  EtBr fluorescence: 9.8
E. coli AG100 [1]; cycle 24
  EtBr fluorescence: 9.927
E. coli AG100 [1]; cycle 25
  EtBr fluorescence: 10.0486
E. coli AG100 [1]; cycle 26
  EtBr fluorescence: 10.1364
E. coli AG100 [1]; cycle 27
  EtBr fluorescence: 10.3331
E. coli AG100 [1]; cycle 28
  EtBr fluorescence: 10.5844
E. coli AG100 [1]; cycle 29
  EtBr fluorescence: 10.7732
E. coli AG100 [1]; cycle 30
  EtBr fluorescence: 11.0863
E. coli AG100 [2]
  membrane depolarization: 14%
